Our source for the ear oedema weight and Reduction values is ChEMBL document CHEMBL1147564, “Synthesis and anti-inflammatory activity of natural and semisynthetic geranyloxycoumarins” (2004).

The species entered for the first assay is Mus musculus. The experiment in a line: Inhibitory activity against mouse uM/cm**2 (control=7.0). Type of assay: functional.
Compound `CC(=O)Oc1c(OC/C=C(\C)CCC=C(C)C)ccc2ccc(=O)oc12` came in with an ear oedema weight of 3.4 mg.

Compound `CC(C)=CCC/C(C)=C/COc1ccc2ccc(=O)oc2c1C` yielded an ear oedema weight of 4.8 mg.

`CC(C)=CCC/C(C)=C/COc1ccc2ccc(=O)oc2c1O` gave an ear oedema weight of 4.3 mg.

Compound `CC(C)=CCC/C(C)=C/COc1ccc2ccc(=O)oc2c1Cl` returned an ear oedema weight of 4.5 mg.

In turn, `CCCCCOc1c(OC/C=C(\C)CCC=C(C)C)ccc2ccc(=O)oc12` registered an ear oedema weight of 6.4 mg.

Consider `CC(C)=CCC/C(C)=C/COc1ccc2ccc(=O)oc2c1OC/C=C(\C)CCC=C(C)C`, for which the ear oedema weight came to 5.1 mg.

In turn, `CC(C)=CCC/C(C)=C/COc1ccc2ccc(=O)oc2c1F` showed an ear oedema weight of 5.1 mg.

As for `CC(C)=CCC/C(C)=C/COc1ccc2ccc(=O)oc2c1Br`, the ear oedema weight amounted to 4 mg.

`CC(C)=CCC/C(C)=C/COc1ccc2ccc(=O)oc2c1I` gave an ear oedema weight of 5 mg.

`CC(C)=CCC/C(C)=C/COc1ccc2ccc(=O)oc2c1` [AURAPTENE] gave an ear oedema weight of 3.4 mg.

On to `COc1c(OC/C=C(\C)CCC=C(C)C)ccc2ccc(=O)oc12` [COLLININ], for which the ear oedema weight worked out at 3.7 mg.

`COc1ccc2c(c1)c(CC(=O)O)c(C)n2C(=O)c1ccc(Cl)cc1` [INDOMETHACIN] displayed an ear oedema weight of 3.7 mg.

The species named for the next assay is Mus musculus. The experiment in a line: (§1) Percent uM/cm**2. Type of assay: functional.
`COc1ccc2c(c1)c(CC(=O)O)c(C)n2C(=O)c1ccc(Cl)cc1` [INDOMETHACIN] returned a Reduction of 47%.

The species entered for another assay is Mus musculus. Described as §1. The class given is functional. Also on record: concentration or dose not given beside the values.
For the compound `CC(=O)Oc1c(OC/C=C(\C)CCC=C(C)C)ccc2ccc(=O)oc12`, the Reduction is reported as 51%.

`CC(C)=CCC/C(C)=C/COc1ccc2ccc(=O)oc2c1C`: the Reduction worked out at 31%.

In the case of `CC(C)=CCC/C(C)=C/COc1ccc2ccc(=O)oc2c1O`, the Reduction is 39%.

Compound `CC(C)=CCC/C(C)=C/COc1ccc2ccc(=O)oc2c1Cl` showed a Reduction of 36%.

As to `CCCCCOc1c(OC/C=C(\C)CCC=C(C)C)ccc2ccc(=O)oc12`, the Reduction came to 9%.

Compound `CC(C)=CCC/C(C)=C/COc1ccc2ccc(=O)oc2c1OC/C=C(\C)CCC=C(C)C` showed a Reduction of 27%.

`CC(C)=CCC/C(C)=C/COc1ccc2ccc(=O)oc2c1F`: the Reduction worked out at 27%.

`CC(C)=CCC/C(C)=C/COc1ccc2ccc(=O)oc2c1Br` showed a Reduction of 43%.

In the case of `CC(C)=CCC/C(C)=C/COc1ccc2ccc(=O)oc2c1I`, the Reduction was found to be 29%.

`CC(C)=CCC/C(C)=C/COc1ccc2ccc(=O)oc2c1` [AURAPTENE] had a Reduction of 51%.

In turn, `COc1c(OC/C=C(\C)CCC=C(C)C)ccc2ccc(=O)oc12` [COLLININ] returned a Reduction of 47%.
